According to PubChem BioAssay (NCI):
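Grown in 96-well plates, cells were treated for 48 hours with each compound at five concentrations. Insufficient inhibition: endpoint recorded as highest concentration tested. The concentration for full growth arrest is given as TGI.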

How the values were obtained:
Test in all cases: NCI-60 cell line screen, 48 h
MDA-MB-435 = test system: MDA-MB-435
NCI/ADR-RES ovarian = test system: NCI/ADR-RES ovarian
MCF7 breast = test system: MCF7 breast
DU-145 prostate = test system: DU-145 prostate
NCI-H23 lung = test system: NCI-H23 lung
PC-3 prostate = test system: PC-3 prostate

For COc1cc(-c2cc(=O)c3c(O)c(CC=C(C)C)c(O)cc3o2)ccc1O, the TGI (MDA-MB-435) was 22 µM, the TGI (NCI/ADR-RES ovarian) was > 50 µM and the TGI (MCF7 breast) was > 50 µM. For the same compound, the TGI (DU-145 prostate) was > 50 µM, the TGI (NCI-H23 lung) was > 50 µM and the TGI (PC-3 prostate) was > 50 µM.
